From patent US20250145585A1, “HETEROCYCLIC INHIBITORS OF IGF-1R FOR TREATMENT OF DISEASE” (HORIZON THERAPEUTICS IRELAND DAC, priority 2023, published 2025) come the findings set out here.

Some results are limits rather than exact numbers.

What is called IC50 is the concentration that gives 50% inhibition.

For this assay, the target named is T1, IGF-1R (Homo sapiens, UniProt P08069).
T1 construct: expressed in transfected cells
In words: Example B-2: IGF-1R Assay (PathHunter cell lines, EC80 agonist challenge, chemiluminescent detection). It counts as cell-based. The conditions noted are these: PathHunter cells, compound 60 minutes at 37° C., EC80 agonist 3 hours; read-out: IC50, Biological Activity against IGF-1R (Table B2). In a few lines: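 PathHunter cells were pre-incubated with compound for 60 min at 37° C (1% vehicle), then challenged with EC80 agonist for 3 h at room temperature. Chemiluminescent detection after 1 h gave % inhibition relative to EC80 and vehicle controls, from which IC50 was derived.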

T1 sequence (P08069 31-1367): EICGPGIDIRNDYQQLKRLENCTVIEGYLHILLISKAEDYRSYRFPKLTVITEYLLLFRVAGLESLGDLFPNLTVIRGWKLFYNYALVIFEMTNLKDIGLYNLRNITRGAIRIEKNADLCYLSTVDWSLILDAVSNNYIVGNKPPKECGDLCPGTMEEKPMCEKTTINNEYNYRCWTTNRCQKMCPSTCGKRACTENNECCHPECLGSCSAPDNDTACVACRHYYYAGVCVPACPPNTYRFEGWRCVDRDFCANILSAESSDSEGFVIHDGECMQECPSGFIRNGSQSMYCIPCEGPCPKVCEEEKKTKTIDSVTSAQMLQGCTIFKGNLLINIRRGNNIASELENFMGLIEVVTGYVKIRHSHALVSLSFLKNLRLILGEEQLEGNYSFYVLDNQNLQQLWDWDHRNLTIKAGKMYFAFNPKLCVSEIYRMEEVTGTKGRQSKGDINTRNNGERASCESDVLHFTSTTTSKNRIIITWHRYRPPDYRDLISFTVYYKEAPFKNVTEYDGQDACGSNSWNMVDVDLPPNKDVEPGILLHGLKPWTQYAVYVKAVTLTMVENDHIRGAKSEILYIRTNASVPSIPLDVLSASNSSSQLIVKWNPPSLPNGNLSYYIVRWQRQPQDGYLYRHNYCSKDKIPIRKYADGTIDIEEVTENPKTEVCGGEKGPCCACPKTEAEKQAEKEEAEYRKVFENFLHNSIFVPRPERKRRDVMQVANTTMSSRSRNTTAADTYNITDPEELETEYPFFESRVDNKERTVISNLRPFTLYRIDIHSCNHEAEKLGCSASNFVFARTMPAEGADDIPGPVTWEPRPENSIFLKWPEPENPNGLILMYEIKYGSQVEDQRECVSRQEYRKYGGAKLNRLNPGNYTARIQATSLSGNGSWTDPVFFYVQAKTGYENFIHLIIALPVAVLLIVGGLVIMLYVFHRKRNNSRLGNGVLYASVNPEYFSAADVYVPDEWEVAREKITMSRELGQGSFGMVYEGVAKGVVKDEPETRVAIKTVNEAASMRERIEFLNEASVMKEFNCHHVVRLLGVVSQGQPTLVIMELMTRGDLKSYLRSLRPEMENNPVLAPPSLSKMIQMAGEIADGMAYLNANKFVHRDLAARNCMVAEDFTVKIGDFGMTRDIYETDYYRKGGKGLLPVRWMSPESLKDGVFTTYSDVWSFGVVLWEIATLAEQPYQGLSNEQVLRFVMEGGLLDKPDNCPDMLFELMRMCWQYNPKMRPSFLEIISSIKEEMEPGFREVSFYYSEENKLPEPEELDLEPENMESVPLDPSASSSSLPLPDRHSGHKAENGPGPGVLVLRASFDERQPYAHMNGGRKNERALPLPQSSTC

With `CC(C)(C#N)c1ccc(N2C(=O)N(Cc3ccnc(NC4CCOCC4)c3)C(C)(C)C2=O)cc1` [Compound 153, 2-(4-(4,4-dimethyl-2,5-dioxo-3-((2-((tetrahydro-2H-pyran-4-yl)amino)pyridin-4-yl)methyl)imidazolidin-1-yl)phenyl)-2-methylpropanenitrile], the half-inhibitory concentration (IC50) was not above 500 nM.

With `C[C@@H](CC#N)Nc1cc(CN2C(=O)N(c3cc(C(C)(C)C)nn3C)C(=O)C2(C)C)ccn1` [Compound 262, (S)-3-((4-((3-(3-(tert-butyl)-1-methyl-1H-pyrazol-5-yl)-5,5-dimethyl-2,4-dioxoimidazolidin-1-yl)methyl)pyridin-2-yl)amino)butanenitrile], the concentration for half-maximal inhibition (IC50) was more than 10000 nM.

On to `CN1C(=O)Cc2c(CN3C(=O)N(c4ccc(C5(C#N)CCC5)cc4)C(=O)C3(C)C)ccnc21` [Compound 65, 1-(4-(4,4-dimethyl-3-((1-methyl-2-oxo-2,3-dihydro-1H-pyrrolo[2,3-b]pyridin-4-yl)methyl)-2,5-dioxoimidazolidin-1-yl)phenyl)cyclobutane-1-carbonitrile], for which the IC50 is more than 10000 nM.

For the molecule `CC(Nc1cc(CN2C(=O)N(c3ccc(C4(C(F)(F)F)CC4)cc3)C(=O)C2(C)C)ccn1)c1cnn(C)c1` (centres unmarked) [Compound 167, 5,5-dimethyl-1-((2-((1-(1-methyl-1H-pyrazol-4-yl)ethyl)amino)pyridin-4-yl)methyl)-3-(4-(1-(trifluoromethyl)cyclopropyl)phenyl) imidazolidine-2,4-dione], the IC50 is not above 500 nM.

On to `CC1(C)C(=O)N(c2ccc(OC(F)(F)F)c(N3CCOCC3)c2)C(=O)N1Cc1ccnc2c1CC(=O)N2` [Compound 74, 5,5-dimethyl-3-(3-morpholino-4-(trifluoromethoxy)phenyl)-1-((2-oxo-2,3-dihydro-1H-pyrrolo[2,3-b]pyridin-4-yl)methyl)imidazolidine-2,4-dione], for which the IC50 is not above 500 nM.

In the case of `CC1(C)C(=O)N(c2ccc(OC(F)(F)F)cc2)C(=O)N1Cc1ccnc2c1CC(=O)N2` [Compound 285, 5,5-dimethyl-1-((2-oxo-2,3-dihydro-1H-pyrrolo[2,3-b]pyridin-4-yl)methyl)-3-(4-(trifluoromethoxy)phenyl) imidazolidine-2,4-dione], the IC50 fell in the range of 500 to 2000 nM.

Consider `CC1Cc2c(CN3C(=O)N(c4ccc(C5(C(F)(F)F)CC5)cc4)C(=O)C3(C)C)ccnc2N1` (centres unmarked) [Compound 34, 5,5-dimethyl-1-((2-methyl-2,3-dihydro-1H-pyrrolo[2,3-b]pyridin-4-yl)methyl)-3-(4-(1-(trifluoromethyl)cyclopropyl)phenyl) imidazolidine-2,4-dione], for which the half-inhibitory concentration (IC50) was not above 500 nM.

On to `CN(C)CC(=O)Nc1cc(N2C(=O)N(Cc3ccnc4c3CC(=O)N4)C(C)(C)C2=O)ccc1OC(F)(F)F` [Compound 54, N-(5-(4,4-dimethyl-2,5-dioxo-3-((2-oxo-2,3-dihydro-1H-pyrrolo[2,3-b]pyridin-4-yl)methyl)imidazolidin-1-yl)-2-(trifluoromethoxy)phenyl)-2-(dimethylamino)acetamide], for which the IC50 is not above 500 nM.

As to `CC1(C)C(=O)N(c2ccc3c(c2)N(S(C)(=O)=O)CC32CCC2)C(=O)N1Cc1ccnc(N[C@H]2[C@@H]3COC[C@@H]32)c1` [Compound 216, 1-((2-(((1R,5S,6r)-3-oxabicyclo[3.1.0]hexan-6-yl)amino)pyridin-4-yl)methyl)-5,5-dimethyl-3-(1′-(methylsulfonyl)spiro[cyclobutane-1,3′-indolin]-6′-yl)imidazolidine-2,4-dione], the IC50 is not above 500 nM.

As to `CC1(C)C(=O)N(c2ccc(C3(C(F)(F)F)CC3)cc2)C(=O)N1Cc1ccnc(NC2CCc3cn[nH]c3C2)c1` (centres unmarked) [Compound 161, 5,5-dimethyl-1-((2-((4,5,6,7-tetrahydro-1H-indazol-6-yl)amino)pyridin-4-yl)methyl)-3-(4-(1-(trifluoromethyl)cyclopropyl)phenyl) imidazolidine-2,4-dione], the IC50 is not above 500 nM.

For the molecule `CN1CC2(CCC2)c2ccc(N3C(=O)N(Cc4ccnc(NC5CCOCC5)c4)C(C)(C)C3=O)cc21` [Compound 214, 5,5-dimethyl-3-(1′-methylspiro[cyclobutane-1,3′-indolin]-6′-yl)-1-((2-((tetrahydro-2H-pyran-4-yl)amino)pyridin-4-yl)methyl)imidazolidine-2,4-dione], the IC50 is not above 500 nM.

As for `CC(C)Nc1cc(CN2C(=O)N(c3ccc(C4(C#N)CC4)cc3)C(=O)C2(C)C)ccn1` [Compound 144, 1-(4-(3-((2-(isopropylamino)pyridin-4-yl)methyl)-4,4-dimethyl-2,5-dioxoimidazolidin-1-yl)phenyl)cyclopropane-1-carbonitrile], the concentration for half-maximal inhibition (IC50) lay in the range of 500 to 2000 nM.

Regarding `CC(C)(C#N)c1ccc(N2C(=O)N(Cc3ccnc(NC4CC4)c3)C(C)(C)C2=O)cc1` [Compound 149, 2-(4-(3-((2-(cyclopropylamino)pyridin-4-yl)methyl)-4,4-dimethyl-2,5-dioxoimidazolidin-1-yl)phenyl)-2-methylpropanenitrile], the IC50 is not above 500 nM.

As to `Cn1nc(C(C)(C)C)c(Br)c1N1C(=O)N(Cc2ccnc3c2CC(=O)N3)C(C)(C)C1=O` [Compound 47, 3-(4-bromo-3-(tert-butyl)-1-methyl-1H-pyrazol-5-yl)-5,5-dimethyl-1-((2-oxo-2,3-dihydro-1H-pyrrolo[2,3-b]pyridin-4-yl)methyl)imidazolidine-2,4-dione], the IC50 is 2000 to 10000 nM.

In the case of `C[C@@H](Nc1cc(CN2C(=O)N(c3ccc(S(=O)(=O)C(F)(F)F)cc3)C(=O)C2(C)C)ccn1)[C@@H]1CCCO1` [Compound 341, 5,5-dimethyl-1-((2-(((R)-1-((S)-tetrahydrofuran-2-yl)ethyl)amino)pyridin-4-yl)methyl)-3-(4-((trifluoromethyl)sulfonyl)phenyl) imidazolidine-2,4-dione], the IC50 is 500 to 2000 nM.

For the molecule `CC1(c2ccc(N3C(=O)N(Cc4ccnc5c4CC(=O)N5)C(C)(C)C3=O)cc2)CC1` [Compound 48, 5,5-dimethyl-3-(4-(1-methylcyclopropyl)phenyl)-1-((2-oxo-2,3-dihydro-1H-pyrrolo[2,3-b]pyridin-4-yl)methyl)imidazolidine-2,4-dione], the 50% inhibitory concentration (IC50) was not above 500 nM.

`CC1(C)C(=O)N(c2ccc(S(=O)(=O)C(F)(F)F)cc2)C(=O)N1Cc1ccnc(N[C@H]2C[C@H]2F)c1` [Compound 357, 1-((2-(((1S,2R)-2-fluorocyclopropyl)amino)pyridin-4-yl)methyl)-5,5-dimethyl-3-(4-((trifluoromethyl)sulfonyl)phenyl)imidazolidine-2,4-dione]: the IC50 was not above 500 nM.

For the molecule `C[C@@H](CC#N)Nc1cc(CN2C(=O)N(c3ccc(S(=O)(=O)C(F)(F)F)cc3)C(=O)C2(C)C)ccn1` [Compound 321, (S)-3-((4-((5,5-dimethyl-2,4-dioxo-3-(4-((trifluoromethyl)sulfonyl)phenyl)imidazolidin-1-yl)methyl)pyridin-2-yl)amino)butanenitrile], the half-maximal inhibitory concentration (IC50) fell in the range of 500 to 2000 nM.

`CC1(C)C(=O)N(c2ccc(C3(C(F)(F)F)CC3)cc2)C(=O)N1Cc1ccnc(NCC2(C#N)CC2)c1` [Compound 160, 1-(((4-((5,5-dimethyl-2,4-dioxo-3-(4-(1-(trifluoromethyl)cyclopropyl)phenyl)imidazolidin-1-yl)methyl)pyridin-2-yl)amino)methyl)cyclopropane-1-carbonitrile]: the IC50 is not above 500 nM.

With `CCOC[C@H](C)Nc1cc(CN2C(=O)N(c3ccc(C4(C(F)(F)F)CC4)cc3)C(=O)C2(C)C)ccn1` [Compound 157, (S)-1-((2-((1-ethoxypropan-2-yl)amino)pyridin-4-yl)methyl)-5,5-dimethyl-3-(4-(1-(trifluoromethyl)cyclopropyl)phenyl) imidazolidine-2,4-dione], the 50% inhibitory concentration (IC50) was not above 500 nM.

Regarding `CC1(C)C(=O)N(c2ccc3c(c2)N(S(C)(=O)=O)CC32CCC2)C(=O)N1Cc1ccnc(NCC2CCOC2)c1` (centres unmarked) [Compound 226, 5,5-dimethyl-3-(1′-(methylsulfonyl)spiro[cyclobutane-1,3′-indolin]-6′-yl)-1-((2-(((tetrahydrofuran-3-yl)methyl)amino)pyridin-4-yl)methyl)imidazolidine-2,4-dione], the half-maximal inhibitory concentration (IC50) was not above 500 nM.

For the molecule `C[C@H](Nc1cc(CN2C(=O)N(c3ccc4c(c3)N(S(C)(=O)=O)CC43CCC3)C(=O)C2(C)C)ccn1)c1cccnc1` [Compound 243, (S)-5,5-dimethyl-3-(1′-(methylsulfonyl)spiro[cyclobutane-1,3′-indolin]-6′-yl)-1-((2-((1-(pyridin-3-yl)ethyl)amino)pyridin-4-yl)methyl)imidazolidine-2,4-dione], the IC50 is not above 500 nM.

For `CC(C)Nc1cc(CN2C(=O)N(c3cnc4c(c3)N(C)CC4(C)C)C(=O)C2(C)C)ccn1` [Compound 197, 1-((2-(isopropylamino)pyridin-4-yl)methyl)-5,5-dimethyl-3-(1,3,3-trimethyl-2,3-dihydro-1H-pyrrolo[3,2-b]pyridin-6-yl)imidazolidine-2,4-dione], the IC50 lay in the range of 2000 to 10000 nM.

Take `CC1(C)C(=O)N(c2ccc(S(C)(=O)=O)cc2)C(=O)N1Cc1ccnc(N[C@H]2[C@@H]3COC[C@@H]32)c1` [Compound 337, 1-((2-(((1R,SS,6r)-3-oxabicyclo[3.1.0]hexan-6-yl)amino)pyridin-4-yl)methyl)-5,5-dimethyl-3-(4-(methylsulfonyl)phenyl) imidazolidine-2,4-dione]: the concentration for half-maximal inhibition (IC50) was more than 10000 nM.

In the case of `CC1(C)C(=O)N(c2ccc(C3(C(F)(F)F)CC3)cc2)C(=O)N1Cc1ccnc(NCc2nc3ccccn3n2)c1` [Compound 175, 1-((2-(([1,2,4]triazolo[1,5-a]pyridin-2-ylmethyl)amino)pyridin-4-yl)methyl)-5,5-dimethyl-3-(4-(1-(trifluoromethyl)cyclopropyl)phenyl) imidazolidine-2,4-dione], the IC50 was not above 500 nM.

Regarding `CC1(C)C(=O)N(c2ccc(C3(C(F)(F)F)CC3)cc2)C(=O)N1Cc1ccnc(N[C@H]2C[C@H]2F)c1` [Compound 142, 1-((2-(((1S,2R)-2-fluorocyclopropyl)amino)pyridin-4-yl)methyl)-5,5-dimethyl-3-(4-(1-(trifluoromethyl)cyclopropyl)phenyl)imidazolidine-2,4-dione], the half-inhibitory concentration (IC50) was not above 500 nM.
